The assay in a line: HeLa cell cytotoxicity, dose response, cytotoxicity control, 48 h, plate reader, cherry-picks, set 2 (AID 504944). The following applies: HeLa cytotoxicity, plate reader, 48 h.

Calls of active or inactive are those of the source. How the calls were made is not given here.

As for `COC(=O)c1ccc(OC(=O)c2cccs2)cc1`, for the setting “at 38 µM (top of the series)”, the activity change, negative = toxicity was -10.9% (inactive).
Same read-out and setting: the figure for `Cc1ccc(S(=O)(=O)NCCC(C)C)cc1[N+](=O)[O-]` is -2.87% (inactive); for `O=[N+]([O-])c1ccc(N2CCCCC2)nc1` it is -0.44% (inactive); for `COc1ccccc1C(C#N)c1cccc(Cl)n1` (stereo unspecified) it is -0.092% (inactive).
As to `O=C(c1cccc([N+](=O)[O-])c1)N1CC2C3C=CC(C3)C2C1` (stereo unspecified), the activity change, negative = toxicity (at 38 µM (top of the series)) is -2.29% (inactive).
The same measure, in the same setting: the figure for `Cc1ccc(C)c(S(=O)(=O)NC2CCSC2=O)c1` (stereo unspecified) is -5.62% (inactive); for `O=S1(=O)CCOC[C@H](c2ccccc2)N1Cc1cccc(Cl)c1` it is -9.16% (inactive); for `Cc1cc(NC(=O)Nc2ccccc2[N+](=O)[O-])no1` it is -12.9% (inactive).
Same read-out and setting: the figure for `N#CC(c1ccc(Cl)cc1)c1ncc(C(F)(F)F)cc1Cl` (stereo unspecified) is -15% (inactive); for `CCOc1ccc(-n2cccc2C=O)cc1` it is -8.05% (inactive); for `CC(C)N=C(NC#N)SCc1ccccc1F` it is 0.214% (inactive).
Same read-out and setting: the result for `C#CCSc1ncc(-c2ccccc2)cn1` reads -4.45% (inactive).
In the case of `Cn1cccc1C(C#N)c1cccc(F)c1C#N` (stereo unspecified), the activity change, negative = toxicity (at 38 µM (top of the series)) is -11.4% (inactive).
The same measure, in the same setting: the result for `CCC(C)NS(=O)(=O)c1ccc(OC)c(Cl)c1Cl` (stereo unspecified) reads -10.1% (inactive).
With `COc1ccc(CNCc2cccc(Cl)c2)cc1`, under “at 38 µM (top of the series)”, the activity change, negative = toxicity is 3.92% (inactive).
Same read-out and setting: the result for `N#CC(c1ccc(Cl)cc1)c1cccc(Cl)n1` (stereo unspecified) reads -6.14% (inactive).
The same measure, in the same setting: the result for `N#CC(c1ccc(Cl)cc1)c1ccc(Cl)nn1` (stereo unspecified) reads -11% (inactive); that for `Cc1cc(C)nc(N(C#N)Cc2ccccc2)n1`, 2.63% (inactive); that for `O=CNC1(c2ccccc2)CCCCC1`, -10.5% (inactive).
The same measure, in the same setting: the result for `N#CC(c1ccccc1)c1cccc(Cl)n1` (stereo unspecified) reads 1.47% (inactive).
Turning to `O=[N+]([O-])c1ccc(N2CCCC2)nc1`, the activity change, negative = toxicity (at 38 µM (top of the series)) is -3.24% (inactive).
On the same count and under the same terms, the figure for `N#CCn1c(C2CCCCC2)nc2ccccc2c1=O` is 0.099% (inactive); for `Cc1ccc2scc(CN3CCCC3)c2c1` it is -3.48% (inactive).
Same read-out and setting: the figure for `O=C(NC1CCCC1)c1cccc(Cl)c1` is 2.48% (inactive); for `COC(=O)c1ccc(NC(=S)N2CCCC2)cc1` it is 0.525% (inactive).
The same measure, in the same setting: the figure for `CSc1nnc(-c2ccc([N+](=O)[O-])cc2)o1` is -10.7% (inactive).
Regarding `COC(=O)c1ccc(OC(=O)c2ccco2)cc1`, the activity change, negative = toxicity (at 38 µM (top of the series)) is -11.8% (inactive).
The same measure, in the same setting: the result for `O=CN(c1ccccc1)c1ccc2ccccc2c1` reads -5.5% (inactive).
`COc1ccc(/C=C/C(=O)c2ccoc2)cc1`: where the note is “at 38 µM (top of the series)”, the activity change, negative = toxicity was -17.6% (inactive).
The same measure, in the same setting: the figure for `Cc1cccc(C(C#N)c2ccc(Cl)nn2)c1` (stereo unspecified) is -0.066% (inactive); for `N#Cc1cc(-c2ccccc2)cnc1Cl` it is -4.08% (inactive).
Regarding `COc1ccc(/C(C#N)=C/c2cccnc2)cc1`, the activity change, negative = toxicity (at 38 µM (top of the series)) is -8.3% (inactive).
Still for that read-out and setting: the figure for `CCOC(=O)c1ccc(-c2ccc(C=O)o2)cc1` is 0.584% (inactive).
As for `Cc1cc(NC(=O)c2c(F)c(F)c(F)c(F)c2F)no1`, the activity change, negative = toxicity (at 38 µM (top of the series)) is -10.1% (inactive).
Same read-out and setting: the result for `N#CC(c1ccc(Cl)nn1)c1ccc(Cl)cc1Cl` (stereo unspecified) reads -7.39% (inactive); that for `N#CN(Cc1ccccc1)Cc1ccccc1`, 2.47% (inactive).
On the same count and under the same terms, the result for `CSC1=N/C(=C\C=C\c2cccs2)C(=O)S1` reads -8.63% (inactive); that for `COC(=O)c1cc(-c2ccc(OC)cc2)on1`, 4.16% (inactive).
Turning to `O=C(NC1CCCC1)c1cc(Cl)ccc1[N+](=O)[O-]`, the activity change, negative = toxicity (at 38 µM (top of the series)) was -2.55% (inactive).
Still for that read-out and setting: the result for `N#CC(c1cccc(Cl)c1)c1ncc(C(F)(F)F)cc1Cl` (stereo unspecified) reads -12.5% (inactive); that for `Cn1cccc1C(=O)OCc1cc(-c2ccco2)on1`, 0.43% (inactive); that for `O=C1C2C(C(=O)N1Cc1ccco1)C1C=CC2C12CC2` (stereo unspecified), -4.39% (inactive).
Consider `CCOC1=CC(=O)OC(c2ccccc2)C1` (stereo unspecified), for which the activity change, negative = toxicity (at 38 µM (top of the series)) was -12.2% (inactive).
As to `Cc1cc(S(=O)(=O)NCC2CC2)c(Cl)cc1Cl`, the activity change, negative = toxicity (at 38 µM (top of the series)) was -4.01% (inactive).
The same measure, in the same setting: the figure for `Nc1ccc(OCc2ccccc2)cc1[N+](=O)[O-]` is -5.72% (inactive); for `Cc1ccc(S(=O)c2ccc(C)cc2)cc1` it is -9.53% (inactive); for `N#CC1C(C#N)C2CCC1C1C2N1c1ccccc1` (stereo unspecified) it is -9.52% (inactive).
On the same count and under the same terms, the result for `CCCNS(=O)(=O)c1ccc(OC)c(Cl)c1Cl` reads -2.35% (inactive).
On the same count and under the same terms, the figure for `N#CC(c1ccc(Cl)nn1)c1ccccc1Cl` (stereo unspecified) is -3.51% (inactive); for `CCOC(=O)N1CCN(c2ccc(Cl)cc2)CC1` it is 5.84% (inactive).
As to `CCOC(=O)c1ccc(N2Cc3ccccc3C2=N)cc1`, the activity change, negative = toxicity (at 38 µM (top of the series)) is -10.6% (inactive).
Same read-out and setting: the figure for `Cc1cc(C)nc(N(C#N)Cc2cccc([N+](=O)[O-])c2)n1` is -8.51% (inactive).
With `CCOc1ccc(CNC2CCCc3ccccc32)cc1` (stereo unspecified), the activity change, negative = toxicity (at 38 µM (top of the series)) was -11.3% (inactive).
Take `Clc1ccc2scc(CN3CCCC3)c2c1`: where the note is “at 38 µM (top of the series)”, the activity change, negative = toxicity was -10.3% (inactive).
Same read-out and setting: the figure for `Cc1cccc(NC(=O)Nc2cc(C)on2)c1` is -3.2% (inactive); for `O=C(NCC1CC1)c1cc([N+](=O)[O-])cc([N+](=O)[O-])c1` it is 5.69% (inactive).
On to `CCNC(=O)COc1ccc2ccccc2c1`, for which the activity change, negative = toxicity (at 38 µM (top of the series)) was -6.43% (inactive).
Still for that read-out and setting: the result for `CCOC(=O)CCCn1ncn2c(cc3occc32)c1=O` reads -0.83% (inactive).
`C=CCOC(=O)c1ccc(-n2cnc(C)n2)nc1`: the activity change, negative = toxicity (at 38 µM (top of the series)) was -2.17% (inactive).
Regarding `COc1ccc(C2=C(C=O)Cc3ccccc3O2)cc1`, the activity change, negative = toxicity (at 13.5 µM (top of the series)) was 0.173% (inactive).
With `O=[N+]([O-])c1ccc(N2CCCCC2)cc1`, the activity change, negative = toxicity (at 38 µM (top of the series)) is -9.13% (inactive).
Still for that read-out and setting: the result for `Clc1ccc2scc(CN3CCCCC3)c2c1` reads -2.59% (inactive).
As for `COc1ccc(C(C#N)c2ccc(Cl)nn2)cc1` (stereo unspecified), the activity change, negative = toxicity (at 38 µM (top of the series)) is 8.42% (inactive).
Consider `CC(C)CCNC(=O)c1cccc(Cl)c1`, for which, for the setting “at 38 µM (top of the series)”, the activity change, negative = toxicity was -10.7% (inactive).
Still for that read-out and setting: the result for `N#CC(c1ccc(Cl)nn1)c1c(F)cccc1Cl` (stereo unspecified) reads -4.99% (inactive); that for `COC(=O)c1cc(-c2ccc(Br)cc2)on1`, -9.19% (inactive).

These data come from PubChem BioAssay AID504944 (Broad Institute, 2011).
